The numbers were not newly measured in patent US11571385B2, “Self-emulsifiable composition, production method therefor, nanoemulsion, and production method therefor” (Kewpie Corporation, priority 2017, dated 2023), which cites them from elsewhere.

The conditions of the data set: solubility in water, Japanese Pharmacopoeia class.

As for `COc1ccc2c(c1)c(CC(=O)OCC(=O)O)c(C)n2C(=O)c1ccc(Cl)cc1` [Acemetacin, acemetacin], the solubility result is given as “almost not soluble”. Turning to `COc1ccc2c(c1)c(CC(=O)O)c(C)n2C(=O)c1ccc(Cl)cc1` [Indomethacin, indomethacin], the solubility entry was “almost not soluble”.

For the molecule `C=CC[C@@H]1/C=C(\C)C[C@H](C)C[C@H](OC)[C@H]2O[C@@](O)(C(=O)C(=O)N3CCCC[C@H]3C(=O)O[C@H](/C(C)=C/[C@@H]3CC[C@@H](O)[C@H](OC)C3)[C@H](C)[C@@H](O)CC1=O)[C@H](C)C[C@@H]2OC` [Tacrolimus, tacrolimus], the solubility entry is reported as “almost not soluble”.
